From patent US5026731A, “Pharmaceutical composition and method of treating psychoses” (Schering Corporation, priority 1990, dated 1991) come the findings set out here.

One test addresses T1, dopamine D-1 receptor (Bos taurus, UniProt Q95136).
T1 construct: Striata were dissected on ice and membranes prepared as described earlier; from tissue; host or cells: bovine striatum (membranes; brains from a local slaughter house)
Description: Competitive inhibition binding assay, 3H-Sch 23390 (D1-binding), bovine striatal membranes. Particulars: for Ki: 3H-Sch 23390 binding, bovine striatal membranes, 30 minute at 37° C., Tris-HCl pH 7.4. As to the method: (§1) Compounds of represented by formula I may be synthesized as disclosed herein and diluted in 0.05M Tris buffer, pH 7.4, as required.
(§2) Bovine brains were obtained from a local slaughter house, on ice. […] Briefly, the striata were homogenized in 20 volumes of Tris-HCl (50 mM) buffer, pH 7.4, using a Polytron (Brinkmann) homogenizer, setting 7; membranes were washed by centrigugation (20,000×g) and resuspending in buffer, twice, and finally resuspended in assay buffer (Tris-HCl, 50 mM, pH 7.4, containing 120 mM NaCl, 5 mM KCl, […], 1 mM MgCl2). At least 3-4 different pools of membrane were processed and stored at -80° C.
(§3) For competition studies, several concentration of test drug or standard were included, ranging from 10^-4 to 10^-3. Tubes were incubated, 30 minute incubations at 37° C. were terminated by rapid filtration under vacuum, on to GF/B filters, presoaked in 0.3% polyethyleneamine (PEl), with three 5 ml washes.

A further test addresses T2, D-2 receptor (Bos taurus, UniProt P20288).
T2 construct: Striata were dissected on ice and membranes prepared as described earlier; from tissue; host or cells: bovine striatum (membranes; brains from a local slaughter house)
Description: Competitive inhibition binding assay, 3H-spiperone (D2-binding), bovine striatal membranes. The method, then: as §1, §2, §3

The mark [1] stands for this setting: 3H-spiperone binding, bovine striatal membranes, 30 minute at 37° C., Tris-HCl pH 7.4.

T1 sequence (Q95136 whole entry): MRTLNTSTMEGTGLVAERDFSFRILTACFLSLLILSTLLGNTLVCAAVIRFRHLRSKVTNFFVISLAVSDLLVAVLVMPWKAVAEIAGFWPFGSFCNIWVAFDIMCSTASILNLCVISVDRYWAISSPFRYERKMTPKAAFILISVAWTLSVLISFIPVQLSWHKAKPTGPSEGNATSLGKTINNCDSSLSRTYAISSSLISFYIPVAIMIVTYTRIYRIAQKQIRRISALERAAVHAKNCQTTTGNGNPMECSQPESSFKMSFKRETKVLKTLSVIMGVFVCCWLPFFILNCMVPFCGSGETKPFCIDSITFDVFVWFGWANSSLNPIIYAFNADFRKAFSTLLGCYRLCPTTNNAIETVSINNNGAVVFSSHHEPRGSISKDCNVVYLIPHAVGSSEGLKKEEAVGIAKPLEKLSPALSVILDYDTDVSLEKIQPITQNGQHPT
T2 sequence (P20288 whole entry): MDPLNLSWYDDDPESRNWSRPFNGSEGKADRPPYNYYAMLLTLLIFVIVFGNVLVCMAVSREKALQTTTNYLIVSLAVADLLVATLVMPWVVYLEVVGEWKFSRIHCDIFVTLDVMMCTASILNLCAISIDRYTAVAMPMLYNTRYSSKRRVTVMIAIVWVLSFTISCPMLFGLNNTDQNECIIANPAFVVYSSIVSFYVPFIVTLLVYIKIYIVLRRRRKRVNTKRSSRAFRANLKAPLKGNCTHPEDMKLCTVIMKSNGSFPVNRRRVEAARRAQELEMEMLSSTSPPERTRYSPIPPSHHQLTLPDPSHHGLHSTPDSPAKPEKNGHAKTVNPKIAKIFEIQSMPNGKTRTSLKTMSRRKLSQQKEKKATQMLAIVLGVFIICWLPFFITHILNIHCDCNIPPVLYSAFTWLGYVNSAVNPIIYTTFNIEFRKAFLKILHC

Regarding `CC(=O)Nc1cc(O)ccc1O` [2,5-dihydroxyacetanilide], the Ki on dopamine D-1 receptor was 1200 to 2000 nM; at D-2 receptor (setting [1]) it was 200000 nM. Besides, on dopamine D-1 receptor (from the Ki data of Table 1, D1 vs D2), the “D1 receptor selectivity (D1 versus D2)” value is “more than 100 fold”.
As for `CN1CCc2cc(Cl)c(O)cc2[C@@H](c2ccccc2)C1` [Sch 23390, (R)-(+)-8-chloro-2,3,4,5-tetrahydro-3-methyl-5-phenyl-1H-3-benzazepin-7-olhemimaleate], the Ki is 0.8 nM on dopamine D-1 receptor and 800 nM on D-2 receptor (setting [1]).
The compound (+) butaclamol yielded a Ki at D-2 receptor (pH 7.4) of 1 nM. This counts as single-digit nanomolar.

The term Ki denotes a dissociation constant, usually derived from enzyme kinetics or from competition with a known ligand. High values mean lower affinity, low ones higher affinity.
